{
  "source": "patent US8506942B2",
  "about": "“Hair care composition” (Conopco, Inc., priority 2007, dated 2013)",
  "biological_target": "T1, trypsin (Bos taurus, UniProt P00760)",
  "T1 construct": "gene PRSS1",
  "T1 sequence (P00760 24-246)": "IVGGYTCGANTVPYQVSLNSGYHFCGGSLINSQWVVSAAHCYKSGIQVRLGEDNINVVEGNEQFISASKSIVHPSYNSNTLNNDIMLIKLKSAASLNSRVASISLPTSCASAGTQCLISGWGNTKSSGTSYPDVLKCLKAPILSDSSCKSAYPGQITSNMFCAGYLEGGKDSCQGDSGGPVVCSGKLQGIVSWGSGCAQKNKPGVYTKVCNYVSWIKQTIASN",
  "assay": "EnzChek Protease Assay measuring trypsin activity (trypsin inhibition)",
  "assay_type": "biochemical",
  "settings": "for Trypsin activity (RFU): control (trypsin only) 1446 RFU; for Normalised activity: control (trypsin only) = 1.0",
  "from_the_text": "Hair growth follows a cycle of activity: anagen (growth phase), catagen (transitional/regression phase), telogen (dormant) followed by renewal of anagen. The telogen phase lasts approximately 3 months. […] The major biochemical activity at this stage is one of proteolysis whereby the proteins anchoring the hair fibre to the structure of the follicle are degraded (Paus & Krejic-Papa J Dermatol Sci 1994 Vol. 7, pp. 202-209; Krejic-Papa et al J Invest Derm Vol. 106, p 557). These enzymes are of the serine protease family of proteases.\nTrypsin is a serine protease.\nThe following experiment uses trypsin as a model for the serine proteases involved in the process of hair fall (exogen). Successful inhibition the activity of the serine proteases such as trypsin is thought to delay the onset of exogen and decrease the amount of hair fall.\nThe EnzChek Protease Assay (E6639, Molecular Probes) was used to measure trypsin activity.",
  "data": [
    {"smiles": "CC(C)(C)C(=O)C(Oc1ccc(Cl)cc1)n1ccnc1", "note": "(centres unmarked) [Climbazole]", "values": [
      {"measurement": "Trypsin activity (RFU)", "setting": "Climbazole 0.0225%", "value": 1656, "unit": "RFU"},
      {"measurement": "Normalised activity", "setting": "Climbazole 0.0225%", "value": 1.15},
      {"measurement": "Trypsin activity (RFU)", "setting": "Climbazole 0.045%", "value": 1553, "unit": "RFU"},
      {"measurement": "Normalised activity", "setting": "Climbazole 0.045%", "value": 1.07},
      {"measurement": "effect on trypsin activity", "setting": "summary of the tables of Examples 1-6", "value": "no effect (or perhaps a positive effect)"}
    ]}
  ]
}
